± gives the expanded uncertainty stated by the source.
Experiments:
[1] = Liquid, Ebulliometric method (Recirculating still)
[2] = refractive index (Na D-line) (dimensionless); conditions: 298.15 K; 101.33 kPa; Liquid; Standard Abbe refractometry

ClC(Cl)C(Cl)Cl [1,1,2,2-tetrachloroethane]
[1]
Conditions	vapor or sublimation pressure [kPa]
343.15 K	7.24 ± 0.08
353.15 K	11.23 ± 0.1
363.15 K	16.65 ± 0.13
373.15 K	24.17 ± 0.17
379.75 K	30.48 ± 0.23
389.55 K	42.33 ± 0.28
396.35 K	52.48 ± 0.33
401.55 K	61.35 ± 0.38
405.55 K	69.05 ± 0.43
409.55 K	77.59 ± 0.47
413.45 K	86.66 ± 0.51
416.45 K	94.27 ± 0.56
418.95 K	101.08 ± 0.58

Conditions	refractive index
[2]	1.492 ± 0.0008

O=C1CCCCC1 [cyclohexanone]
[1]
Conditions	vapor or sublimation pressure [kPa]
343.15 K	5.57 ± 0.06
353.15 K	8.6 ± 0.08
363.15 K	13.07 ± 0.1
373.15 K	18.9 ± 0.15
385.45 K	29.1 ± 0.19
394.05 K	38.41 ± 0.24
401.35 K	48.2 ± 0.29
407.35 K	57.43 ± 0.34
414.75 K	70.59 ± 0.38
419.8 K	81.35 ± 0.45
424.05 K	91.55 ± 0.49
427.8 K	101.1 ± 0.51

Conditions	refractive index
[2]	1.4481 ± 0.0007

O=C1CCCC1 [cyclopentanone]
[1]
Conditions	vapor or sublimation pressure [kPa]
323.15 K	5.31 ± 0.06
333.15 K	8.49 ± 0.08
343.15 K	13.03 ± 0.11
353.15 K	19.61 ± 0.15
358.85 K	24.48 ± 0.18
363.15 K	28.61 ± 0.29
363.45 K	29.04 ± 0.29
372.25 K	39.48 ± 0.26
378.35 K	48.32 ± 0.31
384.15 K	57.77 ± 0.36
388.85 K	67.18 ± 0.42
393.25 K	76.67 ± 0.47
397.65 K	87.37 ± 0.51
399.75 K	92.98 ± 0.54
403.05 K	101.76 ± 0.54

Conditions	refractive index
[2]	1.4349 ± 0.0008
